Test results: the supplement of paper PMC10307832

Assays:
Experiment in all cases: relative viability (nuclei count vs DMSO), 5 days (fraction); higher = more cells survive
Gemcitabine + OSI-027 = compound: Nc1ccn([C@@H]2O[C@H](CO)[C@@H](O)C2(F)F)c(=O)n1 [Gemcitabine] + COc1cccc2cc(-c3nc([C@H]4CC[C@H](C(=O)O)CC4)n4ncnc(N)c34)[nH]c12 [OSI-027] (partner 0.5 µM)
Summary of the method: (§1)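 Five library-drug doses in √10 steps were combined with a fixed anchor-drug dose, or a single drug was given alone, by pin tool to lung cancer cell lines in 1536-well plates the day after seeding. Nuclei were stained and counted after 5 days. Relative viability is the nuclei count in treated wells over that in vehicle wells, taken as the median of duplicate plates.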

Gemcitabine + Foretinib = compound: Nc1ccn([C@@H]2O[C@H](CO)[C@@H](O)C2(F)F)c(=O)n1 [Gemcitabine] + COc1cc2c(Oc3ccc(NC(=O)C4(C(=O)Nc5ccc(F)cc5)CC4)cc3F)ccnc2cc1OCCCN1CCOCC1 [Foretinib] (partner 0.25 µM)
Summary of the method: as §1

Gemcitabine + Pemetrexed = compound: Nc1ccn([C@@H]2O[C@H](CO)[C@@H](O)C2(F)F)c(=O)n1 [Gemcitabine] + Nc1nc2[nH]cc(CCc3ccc(C(=O)N[C@@H](CCC(=O)O)C(=O)O)cc3)c2c(=O)[nH]1 [Pemetrexed] (partner 0.2 µM)
Summary of the method: as §1

Gemcitabine + AZD7762 = compound: Nc1ccn([C@@H]2O[C@H](CO)[C@@H](O)C2(F)F)c(=O)n1 [Gemcitabine] + NC(=O)Nc1cc(-c2cccc(F)c2)sc1C(=O)N[C@H]1CCCNC1 [AZD7762] (partner 0.2 µM)
Summary of the method: as §1

Cell Line	relative viability (Gemcitabine + OSI-027; first compound 0.001 µM)	relative viability (Gemcitabine + OSI-027; first compound 0.003162 µM)	relative viability (Gemcitabine + OSI-027; first compound 0.01 µM)	relative viability (Gemcitabine + OSI-027; first compound 0.03162 µM)	relative viability (Gemcitabine + OSI-027; first compound 0.1 µM)	relative viability (Gemcitabine + Foretinib; first compound 0.001 µM)	relative viability (Gemcitabine + Foretinib; first compound 0.003162 µM)	relative viability (Gemcitabine + Foretinib; first compound 0.01 µM)	relative viability (Gemcitabine + Foretinib; first compound 0.03162 µM)	relative viability (Gemcitabine + Foretinib; first compound 0.1 µM)	relative viability (Gemcitabine + Pemetrexed; first compound 0.001 µM)	relative viability (Gemcitabine + Pemetrexed; first compound 0.003162 µM)	relative viability (Gemcitabine + Pemetrexed; first compound 0.01 µM)	relative viability (Gemcitabine + Pemetrexed; first compound 0.03162 µM)	relative viability (Gemcitabine + Pemetrexed; first compound 0.1 µM)	relative viability (Gemcitabine + AZD7762; first compound 0.001 µM)	relative viability (Gemcitabine + AZD7762; first compound 0.003162 µM)	relative viability (Gemcitabine + AZD7762; first compound 0.01 µM)	relative viability (Gemcitabine + AZD7762; first compound 0.03162 µM)	relative viability (Gemcitabine + AZD7762; first compound 0.1 µM)
PC-14	0.595	0.156	0.0375	0.0459	0.0298	0.953	0.649	0.293	0.0827	0.0507	0.132	0.168	0.0563	0.0461	0.0413	0.269	0.0798	0.0434	0.0466	0.0618
A-427	0.401	0.338	0.148	0.17	0.113	1.09	0.948	0.598	0.181	0.155	0.986	0.93	0.851	0.351	0.249	0.472	0.302	0.174	0.188	0.146
H3255	0.353	0.366	0.394	0.26	0.248	1.04	0.666	0.782	0.273	0.229	0.565	0.519	0.591	0.335	0.224	1	0.604	0.37	0.203	0.248
NCI-H1734	0.506	0.343	0.166	0.121	0.111	0.781	0.653	0.287	0.131	0.126	0.408	0.377	0.197	0.139	0.136	0.153	0.118	0.0866	0.113	0.0969
NCI-H1993	0.539	0.534	0.541	0.503	0.518	0.561	0.833	0.61	0.63	0.588	0.545	0.513	0.516	1.17	0.409	0.74	0.483	0.398	0.439	0.346
NCI-H1437	0.822	0.734	0.452	0.297	0.181	1.28	1.14	0.867	0.442	0.209	0.285	0.325	0.27	0.276	0.254	1.16	0.951	0.171	0.159	0.124
201T	0.653	0.747	0.122	0.146	0.114	1.06	0.994	0.914	0.217	0.177	0.291	0.327	0.288	0.254	0.286	0.59	0.584	0.237	0.225	0.233
NCI-H358	0.523	0.114	0.0702	0.0815	0.0642	0.729	0.168	0.0883	0.0934	0.0705	0.145	0.148	0.146	0.118	0.108	0.201	0.245	0.16	0.23	0.126
ChaGo-K-1	0.516	0.458	0.212	0.185	0.164	0.901	0.815	0.428	0.213	0.191	0.247	0.23	0.23	0.209	0.183	0.819	0.47	0.186	0.141	0.153
LOU-NH91	0.709	0.616	0.45	0.252	0.215	0.965	0.69	0.591	0.332	0.209	0.397	0.413	0.441	0.269	0.286	0.762	0.603	0.395	0.288	0.292
HOP-62	0.681	0.557	0.141	0.127	0.0935	1.01	0.965	0.306	0.103	0.0927	0.323	0.299	0.15	0.0689	0.0761	0.287	0.08	0.0514	0.0757	0.0617
NCI-H1915	0.714	0.63	0.545	0.479	0.241	1.1	1.1	1.04	0.908	0.468	0.484	0.516	0.453	0.513	0.475	0.768	0.662	0.656	0.127	0.0991
NCI-H3122	1.05	0.918	0.246	0.133	0.112	0.94	0.959	0.89	0.123	0.0966	0.196	0.206	0.191	0.138	0.105	1.02	0.783	0.126	0.0803	0.097
NCI-H1651	0.607	0.75	0.557	0.248	0.117	0.805	0.771	0.596	0.137	0.0964	0.561	0.575	0.584	0.362	0.0991	0.519	0.435	0.39	0.0714	0.0892
NCI-H838	0.367	0.441	0.3	0.245	0.124	1.12	1.26	0.999	0.435	0.17	0.251	0.262	0.24	0.241	0.149	0.93	0.886	0.648	0.565	0.616
NCI-H596	0.659	0.604	0.392	0.232	0.193	0.635	0.706	0.287	0.196	0.309	0.531	0.491	0.476	0.403	0.319	1.24	0.717	0.275	0.319	0.235
NCI-H441	0.583	0.28	0.247	0.165	0.201	1.2	0.711	0.421	0.21	0.211	0.277	0.282	0.217	0.16	0.115	0.603	0.134	0.11	0.165	0.128
NCI-H650	0.46	0.24	0.194	0.153	0.169	0.998	0.648	0.197	0.175	0.175	0.865	0.555	0.222	0.128	0.12	0.359	0.172	0.204	0.186	0.161
NCI-H1355	0.362	0.28	0.159	0.178	0.173	0.858	0.7	0.247	0.2	0.187	1	0.885	0.455	0.173	0.162	0.434	0.196	0.112	0.163	0.132
NCI-H2347	0.434	0.431	0.307	0.242	0.24	0.817	0.731	0.826	0.492	0.35	0.43	0.391	0.409	0.357	0.366	0.494	0.468	0.205	0.217	0.233
LCLC-97TM1	0.468	0.524	0.138	0.121	0.116	0.886	0.832	0.597	0.136	0.118	0.174	0.19	0.0994	0.0729	0.0912	0.105	0.0523	0.0434	0.0523	0.0703
EMC-BAC-2	0.422	0.423	0.212	0.214	0.223	1.03	1.03	0.885	0.201	0.201	0.439	0.454	0.389	0.27	0.292	1.18	0.723	0.224	0.301	0.232
NCI-H1975	0.867	0.839	0.327	0.148	0.125	1.03	0.962	0.555	0.156	0.138	0.286	0.29	0.306	0.178	0.173	0.699	0.353	0.19	0.247	0.204
BEN	0.299	0.274	0.174	0.167	0.167	0.77	0.575	0.303	0.112	0.119	0.774	0.417	0.277	0.164	0.223	0.441	0.252	0.184	0.184	0.253
NCI-H23	0.544	0.272	0.127	0.151	0.108	0.751	0.441	0.178	0.163	0.131	0.555	0.223	0.147	0.143	0.143	0.154	0.134	0.0996	0.112	0.118
CAL-12T	0.645	0.47	0.451	0.152	0.13	1.11	1.03	0.982	0.707	0.182	1.38	1.07	1.04	0.286	0.156	0.624	0.548	0.227	0.206	0.23
